In one experiment the target is cannabinoid CB1 receptor (Homo sapiens, UniProt P21554). In words: CB1-receptor binding assay. The note with it: determined as described in WO 2006/106054, page 36. The protocol:
The affinity of the compounds of formula I of the present invention towards cannabinoid CB1 receptors was determined as described in WO 2006/106054, page 36.

The subject of a further experiment is THP-1 cells. In words: Cholesterol efflux assay. The format is cell-based. To be noted: Homo sapiens; THP-1 cells differentiated to macrophages, [3H]cholesterol loaded, efflux induced by 10 μg/ml Apolipoprotein AI, 6 hrs; percent stimulation over DMSO. As for the experimental part:
The ability of compounds of the invention to stimulate cholesterol efflux is determined in replicate cultures of THP-1 cells in 96-well microplates. Cells are plated at an initial density of 150,000 cells/well and differentiated to macrophages with the addition of PMA (100 ng/ml) for 72 hrs in 10% fetal bovine serum, 3 μI/L of b-mercaptoethanol, RPMI-1640 medium. Cells are washed once with RPMI-1640 and loaded with RPMI-1640 medium containing 2% FCS, 50 μg/ml acetylated LDL, and 10 μCi/ml [^3H]cholesterol for 48 hours at 37° C. After loading the cells are washed once with RPMI-1640 and incubated with the compound of interest from DMSO solutions for an additional 24 hrs in RPMI-1640 medium containing 1 mg/ml fatty acid free-bovine serum albumin (BSA). Upon incubation cells are washed once, and cholesterol efflux is induced by the addition of 10 μg/ml Apolipoprotein Al in RPMI-1640 containing 1 mg/ml BSA and in the presence of the compound for an additional 6 hrs. Following incubation radioactivity is determined in the supernatants and cholesterol efflux is expressed as the percent stimulation over replicate cultures treated only with DMSO. Sigmoidal curves were fitted using the XLfit3 program (ID Business Solutions Ltd. UK) and EC50 values were determined.

Molecules are shown by their SMILES.

cannabinoid CB1 receptor, sequence (P21554 whole entry): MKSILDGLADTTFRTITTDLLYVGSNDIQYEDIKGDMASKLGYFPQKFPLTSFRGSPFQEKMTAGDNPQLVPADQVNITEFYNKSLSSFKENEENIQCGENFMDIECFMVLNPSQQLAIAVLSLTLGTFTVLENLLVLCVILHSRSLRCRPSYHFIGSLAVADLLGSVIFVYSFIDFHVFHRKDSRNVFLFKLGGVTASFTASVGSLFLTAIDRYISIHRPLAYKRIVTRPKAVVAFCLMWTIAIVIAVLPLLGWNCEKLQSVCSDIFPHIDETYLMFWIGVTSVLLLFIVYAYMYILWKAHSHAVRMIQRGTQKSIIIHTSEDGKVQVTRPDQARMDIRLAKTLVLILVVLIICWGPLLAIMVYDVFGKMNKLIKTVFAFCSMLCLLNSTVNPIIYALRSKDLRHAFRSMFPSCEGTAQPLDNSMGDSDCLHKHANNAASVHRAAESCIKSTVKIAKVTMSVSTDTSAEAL

As usually defined, the IC50 is the concentration that gives 50% inhibition. High values mean a need for much substance, low ones inhibition by little substance. Broadly, the EC50 is the concentration that produces a half-maximal response. For `CC(O)(CNC(=O)c1cc(-c2ccc(Cl)cc2)c(OCC(F)(F)F)nc1C(F)(F)F)C1CC1` (stereo not shown) [Example 1, 5-(4-chloro-phenyl)-N-(2-cyclopropyl-2-hydroxy-propyl)-6-(2,2,2-trifluoro-ethoxy)-2-trifluoromethyl-nicotinamide], the IC50 at cannabinoid CB1 receptor was about 10000 nM. Besides, in the experiment with THP-1 cells, the EC50 worked out at 450 nM.
With `CC(O)(CNC(=O)c1cc(-c2ccc(Cl)c(Cl)c2)c(OCC(F)(F)F)nc1C(F)(F)F)C1CC1` (stereo not shown) [Example 2, N-(2-cyclopropyl-2-hydroxy-propyl)-5-(3,4-dichloro-phenyl)-6-(2,2,2-trifluoro-ethoxy)-2-trifluoromethyl-nicotinamide], at cannabinoid CB1 receptor, the IC50 is over 10000 nM. In the experiment on THP-1 cells, the EC50 came out at 1070 nM.
`C[C@](O)(CNC(=O)c1cc(-c2ccc(Cl)c(Cl)c2)c(OCC(F)(F)F)nc1C(F)(F)F)C1CC1` [Example 2A, N-((R)-2-cyclopropyl-2-hydroxy-propyl)-5-(3,4-dichloro-phenyl)-6-(2,2,2-trifluoro-ethoxy)-2-trifluoromethyl-nicotinamide] yielded an IC50 on cannabinoid CB1 receptor of over 10000 nM. The EC50 in the experiment with THP-1 cells amounted to 1630 nM.
As to `C[C@@](O)(CNC(=O)c1cc(-c2ccc(Cl)c(Cl)c2)c(OCC(F)(F)F)nc1C(F)(F)F)C1CC1` [Example 2B, N-((S)-2-cyclopropyl-2-hydroxy-propyl)-5-(3,4-dichloro-phenyl)-6-(2,2,2-trifluoro-ethoxy)-2-trifluoromethyl-nicotinamide], the IC50 at cannabinoid CB1 receptor is over 10000 nM. Moreover, in the experiment on THP-1 cells, the EC50 is 1400 nM.
On the same counts, the results for `CC(O)(CNC(=O)c1cc(-c2cccc(Cl)c2)c(OCC(F)(F)F)nc1C(F)(F)F)C1CC1` (stereo not shown) [Example 3, 5-(3-chloro-phenyl)-N-(2-cyclopropyl-2-hydroxy-propyl)-6-(2,2,2-trifluoro-ethoxy)-2-trifluoromethyl-nicotinamide] are over 10000 nM and 480 nM.
For `O=C(N[C@@H]1CCCC[C@H]1O)c1cc(-c2ccc(Cl)cc2)c(OCC(F)(F)F)nc1C(F)(F)F` [Example 4, 5-(4-chloro-phenyl)-N-((1R,2R)-2-hydroxy-cyclohexyl)-6-(2,2,2-trifluoro-ethoxy)-2-trifluoromethyl-nicotinamide], at cannabinoid CB1 receptor, the IC50 amounted to 5600 nM. Besides, in the experiment on THP-1 cells, the EC50 stood at 390 nM.
On the same counts, the results for `O=C(N[C@@H]1CCCC[C@@H]1O)c1cc(-c2ccc(Cl)cc2)c(OCC(F)(F)F)nc1C(F)(F)F` [Example 4B, 5-(4-chloro-phenyl)-N-((1R,2S)-2-hydroxy-cyclohexyl)-6-(2,2,2-trifluoro-ethoxy)-2-trifluoromethyl-nicotinamide] are over 10000 nM and 1200 nM.
The compound `O=C(N[C@H]1CCCC[C@H]1O)c1cc(-c2ccc(Cl)cc2)c(OCC(F)(F)F)nc1C(F)(F)F` [Example 4C, 5-(4-chloro-phenyl)-N-((1S,2R)-2-hydroxy-cyclohexyl)-6-(2,2,2-trifluoro-ethoxy)-2-trifluoromethyl-nicotinamide] had an IC50 on cannabinoid CB1 receptor of over 10000 nM. The EC50 with THP-1 cells is 2500 nM.
`CC(C)CC(CO)NC(=O)c1cc(-c2ccc(NS(C)(=O)=O)cc2)c(OCc2ccccn2)nc1C(F)(F)F` (stereo not shown) [Example 5, N-(1-hydroxymethyl-3-methyl-butyl)-5-(4-methanesulfonylamino-phenyl)-6-(pyridin-2-ylmethoxy)-2-trifluoromethyl-nicotinamide] returned an IC50 at cannabinoid CB1 receptor of about 10000 nM. In addition, the EC50 with THP-1 cells is 890 nM.
In the same order, the values of `CS(=O)(=O)Nc1ccc(-c2cc(C(=O)N[C@@H]3CCCC[C@H]3O)c(C(F)(F)F)nc2OCC(F)(F)F)cc1` [Example 6, N-((1R,2R)-2-hydroxy-cyclohexyl)-5-(4-methanesulfonylamino-phenyl)-6-(2,2,2-trifluoro-ethoxy)-2-trifluoromethyl-nicotinamide] are over 10000 nM and 560 nM.
In the case of `O=C(N[C@@H]1CCCC[C@H]1O)c1cc(-c2ccc(Cl)c(Cl)c2)c(OCc2ccccn2)nc1C(F)(F)F` [Example 7, 5-(3,4-dichloro-phenyl)-N-((1R,2R)-2-hydroxy-cyclohexyl)-6-(pyridin-2-ylmethoxy)-2-trifluoromethyl-nicotinamide], the IC50 at cannabinoid CB1 receptor is over 10000 nM. Besides, the EC50 in the experiment on THP-1 cells worked out at 640 nM.
